Test results from ChEMBL document CHEMBL1201862, “PubChem BioAssay data set” (2004).
Active and inactive are the calls of the source. For most assays here, no stated cut-off is given here; in the data, actives have a measured EC50 and inactives only a lower limit.

Key:
[1] = Luminescence Cell-Based Dose Confirmation HTS to Identify Inhibitors of Platelet Dense Granule Release. [Related pubchem assays: 1663 (Primary HTS), 1678 (Summary of Project)]; format: functional
[2] = target: Luciferin 4-monooxygenase (Photinus pyralis, UniProt P08659); assay: inhibition of purified Photinus pyralis luciferase – biochemical, luminescence, dose response (AID 1891)
[3] = Luminescence Cell-Based Dose Response HTS to Identify Inhibitors of 5'UTR Stem-Loop Driven Prion Protein mRNA Translation in H4 Neuroglioblastoma Cells. [Related pubchem assays: 1827 (Project Summary), 1813 (Primary HTS)]; format: functional
[4] = luciferase reporter signal suppression in cells – H4 neuroglioma cells, luminescence, dose response (AID 1990); format: functional, cell-based
[5] = alpha-synuclein stem-loop luciferase translation blockers – H4 neuroglioma cells, luminescence, confirmation (AID 1988); format: functional, cell-based
[6] = Trypanosoma cruzi growth suppression in host cells – NIH3T3 host cells, beta-gal luminescence, confirmation (AID 2044); format: functional, cell-based;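 further: intracellular parasites grown in NIH/3T3 mouse fibroblasts as host cells; luminescent beta-galactosidase reporter signal from transgenic T. cruzi replicating inside host cells; inhibitors lower the luminescence signal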
Streptokinase A = target: T1, Streptokinase A (Streptococcus pyogenes serotype M1, UniProt P10520); assay: viability-normalized secreted streptokinase activity reduction – plasminogen activation absorbance, OD405, dose response (AID 1914); format: functional, Streptococcus pyogenes M1 GAS;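 further: secreted streptokinase activity via plasminogen activation per viability signal from cell pellet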
T1 sequence (P10520 whole entry): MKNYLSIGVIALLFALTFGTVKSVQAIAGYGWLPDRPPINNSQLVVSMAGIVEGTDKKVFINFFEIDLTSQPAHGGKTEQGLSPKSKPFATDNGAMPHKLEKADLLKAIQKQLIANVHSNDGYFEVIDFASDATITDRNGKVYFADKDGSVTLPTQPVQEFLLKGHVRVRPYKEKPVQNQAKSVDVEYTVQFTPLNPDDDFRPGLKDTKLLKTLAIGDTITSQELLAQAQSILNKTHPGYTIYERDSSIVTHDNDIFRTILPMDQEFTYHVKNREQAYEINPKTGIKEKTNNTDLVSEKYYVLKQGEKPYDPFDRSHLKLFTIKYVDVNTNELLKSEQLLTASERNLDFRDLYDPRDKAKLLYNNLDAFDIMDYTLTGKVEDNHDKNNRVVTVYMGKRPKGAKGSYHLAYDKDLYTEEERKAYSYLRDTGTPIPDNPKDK

[7] = system: Streptococcus sp. 'group A'; assay: Streptococcus pyogenes SK(-)GAS viability under kanamycin – luminescence, BacTiterGlo, confirmation, counter-screen for streptokinase expression inhibitor project, dose response (AID 1900); format: functional, organism-based
[8] = NIH3T3 cell viability loss – ATP luminescence, mouse fibroblasts, counter-screen, dose response (AID 2010); format: functional, cell-based;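 further: cells exposed to compound for about 90 hours before reading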
INS1 = assay: INS-1E survival protection against cytokine death – cell-based, luminescence, retest, dose response (AID 449756); format: functional; details: Rattus norvegicus;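 further: cell death triggered by IL-1 beta plus TNF-alpha plus IFN-gamma mixture; protective hits raise ATP signal compared with cytokine alone wells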
Streptococcus = assay: GAS UMAA2166 growth inhibition – luminescence, BacTiterGlo, counter-screen for streptokinase expression inhibitor project, dose response (AID 1915); format: functional, organism-based;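 further: potency for reduction of bacterial viability or growth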
[9] = target: T2, Heat shock factor protein 1 (Mus musculus, UniProt P38532); assay: decrease of HSF1-responsive luciferase luminescence – cell-based, NIH3T3, dose retest, confirmation (AID 2382); format: functional;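 further: NIH3T3 fibroblasts with HSF1-driven luciferase reporter stressed by proteasome inhibitor MG132; luminescence from HSF1-driven luciferase expression after 8 hours of MG132 stress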
T2 sequence (P38532 whole entry): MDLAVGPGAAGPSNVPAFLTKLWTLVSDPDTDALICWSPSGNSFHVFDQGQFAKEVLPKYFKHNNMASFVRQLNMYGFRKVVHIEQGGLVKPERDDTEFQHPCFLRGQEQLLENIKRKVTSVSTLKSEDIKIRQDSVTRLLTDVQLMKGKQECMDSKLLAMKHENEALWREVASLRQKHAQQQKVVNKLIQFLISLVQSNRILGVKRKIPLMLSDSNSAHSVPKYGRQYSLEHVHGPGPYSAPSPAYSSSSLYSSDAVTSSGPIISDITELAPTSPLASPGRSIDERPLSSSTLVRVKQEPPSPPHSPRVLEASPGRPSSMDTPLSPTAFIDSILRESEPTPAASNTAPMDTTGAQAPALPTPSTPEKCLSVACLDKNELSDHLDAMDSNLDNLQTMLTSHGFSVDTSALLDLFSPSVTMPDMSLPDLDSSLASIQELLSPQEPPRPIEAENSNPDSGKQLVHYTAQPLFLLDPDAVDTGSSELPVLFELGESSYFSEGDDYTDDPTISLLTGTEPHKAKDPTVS

H9c2 = assay: cells; format: functional, cell-based; details: Rattus norvegicus, H9c2, Myocardium;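 further: confirmatory concentration-response retest of ultra-high-throughput screening hits for modulation of myocardial damage; cell death induced by hydrogen peroxide oxidative stress; compound pretreatment for 60 min then peroxide exposure for 2 h; potency is for protecting the cells against peroxide damage rather than for killing them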
Cytochrome P450 1A2 = target: T3, Cytochrome P450 1A2 (Homo sapiens, UniProt P05177);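 further: PubChem cytochrome P450 panel assay, CYP1A2 panel member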
T3 sequence (P05177 whole entry): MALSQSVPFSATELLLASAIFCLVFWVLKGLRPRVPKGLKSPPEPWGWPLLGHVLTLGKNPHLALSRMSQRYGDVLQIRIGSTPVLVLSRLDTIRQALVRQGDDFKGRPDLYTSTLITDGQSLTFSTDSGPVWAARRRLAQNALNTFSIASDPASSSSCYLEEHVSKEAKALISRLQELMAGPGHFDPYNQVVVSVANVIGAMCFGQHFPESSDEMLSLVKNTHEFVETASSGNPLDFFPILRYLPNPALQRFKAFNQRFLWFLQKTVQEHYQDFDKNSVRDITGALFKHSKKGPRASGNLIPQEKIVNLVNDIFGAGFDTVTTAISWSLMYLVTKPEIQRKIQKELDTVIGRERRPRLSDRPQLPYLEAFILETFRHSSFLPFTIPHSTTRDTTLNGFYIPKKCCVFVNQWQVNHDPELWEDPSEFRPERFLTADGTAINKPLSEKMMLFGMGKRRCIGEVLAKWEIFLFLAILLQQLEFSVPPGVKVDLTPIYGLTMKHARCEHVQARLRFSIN

Cytochrome P450 3A4 = Cytochrome P450 3A4 (Homo sapiens, UniProt P08684);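 further: CYP3A4 tested as one member of a cytochrome P450 panel screen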
Paired box protein Pax-8 = Paired box protein Pax-8 (Homo sapiens, UniProt Q06710); assay: PAX8 transcriptional activity inhibition in RMG-I – RMG-I cells, luciferase, cherry-pick, dose response (AID 687027); format: functional, cell-based;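 further: luciferase reporter driven by Pax8 target thyroperoxidase promoter measured by SteadyGlo luminescence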
Cytochrome P450 2D6 = Cytochrome P450 2D6 (Homo sapiens, UniProt P10635);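 further: CYP2D6 member of a cytochrome P450 panel assay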
Sequence of Cytochrome P450 2D6 (P10635 whole entry): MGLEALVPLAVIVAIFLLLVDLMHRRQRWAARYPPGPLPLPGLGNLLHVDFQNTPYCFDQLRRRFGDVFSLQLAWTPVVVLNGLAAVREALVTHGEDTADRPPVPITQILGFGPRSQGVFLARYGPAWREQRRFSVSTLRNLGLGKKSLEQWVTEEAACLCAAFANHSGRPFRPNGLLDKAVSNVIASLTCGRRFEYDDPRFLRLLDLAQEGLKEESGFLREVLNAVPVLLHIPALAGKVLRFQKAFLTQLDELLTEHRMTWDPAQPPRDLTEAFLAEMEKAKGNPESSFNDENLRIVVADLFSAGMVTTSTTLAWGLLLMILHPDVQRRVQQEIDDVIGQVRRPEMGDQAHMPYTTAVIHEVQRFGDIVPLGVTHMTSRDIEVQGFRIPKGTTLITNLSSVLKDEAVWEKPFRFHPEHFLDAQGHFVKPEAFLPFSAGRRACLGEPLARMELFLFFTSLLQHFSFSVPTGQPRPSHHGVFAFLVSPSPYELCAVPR

Sequence of Luciferin 4-monooxygenase (P08659 whole entry): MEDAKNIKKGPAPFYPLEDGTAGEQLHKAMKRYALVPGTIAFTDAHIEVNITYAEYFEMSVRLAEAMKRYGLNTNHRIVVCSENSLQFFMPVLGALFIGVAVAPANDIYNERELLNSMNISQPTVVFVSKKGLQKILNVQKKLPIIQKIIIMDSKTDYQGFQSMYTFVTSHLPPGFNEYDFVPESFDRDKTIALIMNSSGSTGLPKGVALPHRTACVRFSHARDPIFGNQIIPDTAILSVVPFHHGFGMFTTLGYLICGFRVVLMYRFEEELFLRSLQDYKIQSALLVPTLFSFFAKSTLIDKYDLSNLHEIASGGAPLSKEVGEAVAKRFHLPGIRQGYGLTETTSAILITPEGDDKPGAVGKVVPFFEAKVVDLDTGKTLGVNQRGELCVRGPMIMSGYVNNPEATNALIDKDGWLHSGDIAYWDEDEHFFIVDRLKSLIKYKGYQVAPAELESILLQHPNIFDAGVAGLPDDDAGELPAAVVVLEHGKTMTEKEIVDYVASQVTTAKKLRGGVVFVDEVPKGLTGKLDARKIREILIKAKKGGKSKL
Sequence of Paired box protein Pax-8 (Q06710 whole entry): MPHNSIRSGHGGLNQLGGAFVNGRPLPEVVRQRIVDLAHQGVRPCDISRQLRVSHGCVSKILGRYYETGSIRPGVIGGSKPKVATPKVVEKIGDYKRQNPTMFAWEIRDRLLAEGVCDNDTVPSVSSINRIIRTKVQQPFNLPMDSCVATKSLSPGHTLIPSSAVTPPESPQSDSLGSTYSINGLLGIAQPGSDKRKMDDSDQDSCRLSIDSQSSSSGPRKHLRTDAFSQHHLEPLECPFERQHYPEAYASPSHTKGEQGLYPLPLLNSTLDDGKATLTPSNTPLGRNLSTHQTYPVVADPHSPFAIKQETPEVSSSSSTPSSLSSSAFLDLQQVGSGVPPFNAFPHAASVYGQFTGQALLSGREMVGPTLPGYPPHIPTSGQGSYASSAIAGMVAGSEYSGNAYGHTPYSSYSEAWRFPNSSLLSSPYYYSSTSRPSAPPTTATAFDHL
Sequence of Cytochrome P450 3A4 (P08684 whole entry): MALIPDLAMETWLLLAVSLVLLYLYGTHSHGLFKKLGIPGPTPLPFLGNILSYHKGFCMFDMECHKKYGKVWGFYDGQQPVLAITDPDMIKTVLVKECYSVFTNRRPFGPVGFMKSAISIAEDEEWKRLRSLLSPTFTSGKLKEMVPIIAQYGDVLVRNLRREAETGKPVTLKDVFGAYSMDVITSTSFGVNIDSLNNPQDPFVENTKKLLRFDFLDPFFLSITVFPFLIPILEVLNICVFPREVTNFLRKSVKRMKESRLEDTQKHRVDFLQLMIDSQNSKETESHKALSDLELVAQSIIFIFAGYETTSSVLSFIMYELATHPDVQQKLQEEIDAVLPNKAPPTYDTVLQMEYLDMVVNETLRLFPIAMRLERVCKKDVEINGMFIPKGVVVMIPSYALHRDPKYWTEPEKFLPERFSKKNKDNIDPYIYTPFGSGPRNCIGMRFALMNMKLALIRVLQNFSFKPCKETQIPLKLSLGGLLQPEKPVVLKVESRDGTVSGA

COc1ccc(OCC(=O)Nc2nc3ccccc3[nH]2)cc1
EC50 [1]: > 112 µM (not active)
EC50 [2]: > 112 µM (not active)

COC(=O)c1sccc1NC(=O)Nc1cccc(OC)c1
EC50 [1]: 4.37 µM (active)
EC50 [2]: 1.31 µM (active)

Cc1nc(O)nc(O)c1/C=C/C(=O)OCC(C)C
EC50 [3]: > 120 µM (not active)
EC50 [4]: 22.7 µM (active)
EC50 [5]: 15.5 µM (active)

CCCCNc1c(-c2ccc(SC3CCCCC3)cc2)nc2ccccn12
EC50 [6]: 1.2 µM (active)
EC50 (Streptokinase A): > 150 µM (not active)
EC50 [7]: 8.18 µM (active)
EC50 [8]: > 30 µM (not active)
AC50 (INS1): 5.33 µM (active)
EC50 (Streptococcus): 8.23 µM (active)

O=C(CC(=O)c1ccccc1[N+](=O)[O-])c1ccccc1
EC50 [9]: > 195 µM (not active)

COc1ccc(CC(=O)NCC2CCCN(Cc3ccccc3Cl)C2)cc1 (stereo not given)
EC50 [9]: > 195 µM (not active)

O=C(Oc1cc(=O)oc2c1c(=O)n1c3c(cccc23)CC1)c1ccc(F)cc1
EC50 [9]: 22.2 µM (active)

CCN(Cc1cc(=O)oc2cc(C)ccc12)c1ccccc1
EC50 [9]: > 195 µM (not active)

Cc1ccc(-c2nnc(O)c3ccccc23)cc1S(=O)(=O)NCCO
IC50 (H9c2): > 79 µM (inactive)

CC1CCCN(C(=O)C2CCN(S(=O)(=O)c3ccc4c(c3)CC(C)N4C(=O)C3CC3)CC2)C1 (stereo not given)
EC50 [9]: > 195 µM (not active)

CCn1c(O)cc(=O)nc1SCC(=O)N1CCOCC1
EC50 [9]: > 195 µM (not active)

COCCN1CN=C(Nc2nc3ccccc3o2)NC1
EC50 [1]: > 112 µM (not active)
EC50 [2]: > 112 µM (not active)
AC50 (Cytochrome P450 1A2): 22.4 µM (inconclusive)

COc1c(C)cc(Br)cc1C(=O)Nc1cccc(-c2nc3ncccc3o2)c1
IC50 (H9c2): > 79 µM (inactive)

Cc1ccc(C(c2c(C)n(C)n(-c3ccccc3)c2=O)c2c(C)n(C)n(-c3ccccc3)c2=O)s1
IC50 (H9c2): > 79 µM (inactive)

COc1ccc2oc(=O)c(C(=O)N3CCCC3)cc2c1
EC50 [1]: > 112 µM (not active)
EC50 [2]: > 112 µM (not active)

COc1ccc(N(CC(=O)NCc2ccc(F)cc2)C(=O)Cn2nnc(-c3ccc(C)o3)n2)cc1OC
EC50 [9]: > 195 µM (not active)

O=C(NCc1ccccc1C(F)(F)F)C12CN(Cc3ccccc3)CC1C(c1ccc([N+](=O)[O-])cc1)=NO2 (stereo not given)
EC50 [9]: > 195 µM (not active)

CN1CCC(N(C)C(=O)CCc2nc(O)c3ccccc3n2)CC1
AC50 (Cytochrome P450 3A4): 28.2 µM (inconclusive)
IC50 (H9c2): > 79 µM (inactive)

CC(CN1CCOCC1)OC(=O)C(c1ccccc1)c1ccccc1 (stereo not given)
EC50 [9]: > 195 µM (not active)

COc1ccc(C(=O)N2CCCC(c3nc(-c4ccc(OC)c(OC)c4)no3)C2)c(OC)c1 (stereo not given)
EC50 [1]: > 112 µM (not active)
EC50 [2]: > 112 µM (not active)

COC(=O)c1ccc(CSc2nnc(N)s2)cc1
EC50 [1]: > 112 µM (not active)
EC50 [2]: > 112 µM (not active)

COC1=C(Nc2ccccc2OC)C(=O)c2ccccc2C1=O
AC50 (INS1): 38.3 µM (active)

O=c1c2ccccc2nc2c3ccccc3c(NCCO)nn12
IC50 (H9c2): 20.2 µM (active)

NC(=O)c1oc2ccccc2c1NC(=O)c1ccco1
IC50 (H9c2): 17 µM (active)

CCOC(=O)c1nn(-c2ccc3c(c2)CCN3C(C)=O)cc1O
EC50 [1]: > 112 µM (not active)
EC50 [2]: > 112 µM (not active)

O=C(c1ccco1)N1CCN(Cc2nc3ccc([N+](=O)[O-])cc3c(=O)n2-c2ccccc2F)CC1
IC50 (H9c2): 27.6 µM (active)

CCC(=O)Nc1c(-c2ccc(Cl)cc2)c(=O)c2ccccc2n1C
EC50 [9]: > 195 µM (not active)

O=C1c2cccnc2Oc2ccc(Cl)cc2N1Cc1ccc(F)cc1
IC50 (H9c2): > 79 µM (inactive)
EC50 [9]: > 195 µM (not active)

CCc1cc(CNC(=O)c2ccc3nc(Cc4ccc(OC)c(OC)c4)oc3c2)on1
AC50 (INS1): 3.62 µM (active)

O=C(NCc1cccs1)c1csc2ccccc12
EC50 [1]: > 112 µM (not active)
EC50 [2]: > 112 µM (not active)

Nc1cc2nc(O)c3ccccc3c2cc1Br
IC50 (H9c2): > 79 µM (inactive)

COc1cc(C2C3=C(COC3=O)OC(C)(C)Oc3cc4c(cc32)OCO4)cc(OC)c1OC (stereo not given)
AC50 (Paired box protein Pax-8): 1.78 µM (active)

COc1cc(-c2cnc3c(NC=O)cc(-c4cccnc4)cn23)cc(OC)c1OC
IC50 (H9c2): 22.4 µM (active)

COc1cccc(-c2cnc3c(NC=O)cc(-c4ccc(OC)cc4OC)cn23)c1
AC50 (Paired box protein Pax-8): 2.93 µM (active)

CC(=O)c1cccc(NC(=O)C(C)OC(=O)Cc2nnc(O)c3ccccc23)c1 (stereo not given)
IC50 (H9c2): > 79 µM (inactive)

Brc1cc2c(cc1/C=N/Nc1nc(N3CCCC3)nc(N3CCOCC3)n1)OCO2
IC50 (H9c2): > 79 µM (inactive)
AC50 (Cytochrome P450 1A2): 15.8 µM (inconclusive)
AC50 (Cytochrome P450 2D6): 28.2 µM (inconclusive)

CC/C(C)=N\N=C\c1c(O)n(CC)c2cc(C3=NNC(=O)CC3)ccc12
EC50 [1]: 6.14 µM (active)
IC50 (H9c2): 11.9 µM (active)
EC50 [2]: > 112 µM (not active)

COc1ccc(/N=C/C2=C(O)c3ccccc3C2=O)cc1
EC50 [1]: 3.93 µM (active)
EC50 [2]: 0.576 µM (active)

C[C@H]1CCCCO[C@H](CN(C)S(=O)(=O)c2ccc(Cl)cc2)[C@@H](C)CN([C@@H](C)CO)C(=O)c2cc(NS(=O)(=O)c3ccc(Cl)cc3)ccc2O1
AC50 (Paired box protein Pax-8): 5.52 µM (active)

C[C@@H]1CN([C@@H](C)CO)C(=O)c2cc(NS(=O)(=O)c3ccc(F)cc3)ccc2O[C@@H](C)CCCCO[C@H]1CN(C)Cc1ccc(C(F)(F)F)cc1
AC50 (Paired box protein Pax-8): 7.5 µM (active)

C[C@@H]1CN([C@H](C)CO)C(=O)c2cc(NC(=O)c3ccncc3)ccc2O[C@@H](C)CCCCO[C@H]1CN(C)Cc1ccc(C(F)(F)F)cc1
AC50 (Paired box protein Pax-8): 12 µM (active)

Cc1ccc(CO/N=C/c2c(O)cc(C)oc2=O)cc1
EC50 [9]: > 195 µM (not active)
